pIC50: −log10 of the molar value.
How the values were obtained:
hSERT = target: T1, hSERT (Homo sapiens, UniProt P31645); assay: SERT radioligand binding assay ([125I]RTI-55, HEK-hSERT membranes); conditions: [125I]RTI-55, 1 hour at room temperature
T1 construct: expressed in transfected cells; host or cells: HEK-293 cells (crude membranes)
Method: (§1) NK-1 Binding assay. Crude membrane suspensions were prepared for the NK1 and SERT radioligand binding assays from U373 cells or recombinant HEK-293 cells expressing hSERT, respectively. Cells were harvested from T-175 flasks as follows. The medium is removed from the flasks and the cells rinsed with HBSS without Ca and without Mg. The cells are then incubated for 5-10 minutes in 10 mM Tris-Cl, pH 7.5, 5 mM EDTA before the cells are lifted with a combination of pipetting and scraping, as needed. To prepare membranes, the cell suspension is collected into centrifuge bottles and homogenized for 30 seconds with a Polytron homogenizer. The suspension is centrifuged for 30 min @ 32,000×g, 4° C., then the supernatant is decanted and the pellet resuspended and homogenized in 50 mM Tris-Cl, pH 7.5, 1 mM EDTA for 10 seconds. The suspension is then centrifuged again for 30 min @ 32,000×g, 4° C. The supernatant is decanted and the pellet resuspended in 50 mM Tris-Cl, pH 7.5, 1 mM EDTA and briefly homogenized. A Bradford assay (Bio-rad) is performed and the membrane preparation diluted to 2 mg/ml with 50 mM Tris-Cl, pH 7.5, 1 mM EDTA. Aliquots are prepared, and then frozen and stored at −80° C.
SERT radioligand binding assay. Compounds are dissolved in 100% DMSO at a concentration 100× the desired highest assay concentration, serially diluted 1:3 in 100% DMSO, and 0.4 ul/well of each solution is dispensed to a Nunc polypropylene, round bottom, 384 well plate. 100% inhibition is defined with 0.4 ul/well of 1 mM fluoxetine (Sigma F-132) dissolved in DMSO. 20 ul/well of a 2×HEK-hSERT membrane preparation (15 ug/ml in 50 mM Tris-Cl, pH 7.5, 120 mM NaCl, 5 mM KCl) and 20 ul/well of a 2×radioligand solution (520 pM [^125I]RTI-55 (Perkin-Elmer NEX-272) in 50 mM Tris-Cl, pH 7.5, 120 mM NaCl, 5 mM KCl) are added to each well and the reaction incubated for 1 hour at room temperature. The contents of the assay plate are then transferred to a Millipore MultiscreenHTS GF/B filter plate which has been pretreated with 0.5% PEI for at least one hour. The plate is vacuum filtered and washed with 7 washes of 100 ul/well of 50 mM Tris-Cl, pH 7.5, 120 mM NaCl, 5 mM KCl chilled to 4° C. The filtration and washing is completed in less than 90 s. The plates are air-dried overnight, 12 ul/well of MicroScint scintillation fluid added, and the plates counted in a Trilux.
(§2) Data analysis. The raw data are normalized to percent inhibition using control wells defining 0% (DMSO only) and 100% (selective inhibitor) inhibition which are run on each plate. Each plate is run in triplicate, and the concentration response curve thus generated is fit using the four-parameter dose response equation, Y=Bottom+(Top-Bottom)/(1+10^((LogIC50-X)*HillSlope)) in order to determine the IC50 value for each compound. The radioligand concentration chosen for each assay corresponds to the Kd concentration determined through saturation binding analysis for each assay.

NK-1 = target: T2, NK-1 (Homo sapiens, UniProt P25103); assay: NK1 radioligand binding assay ([125I]Substance P, U373 cell membranes); conditions: 1 hour at room temperature
T2 construct: endogenous in cells; host or cells: U373 cells (crude membranes)
Method: as §1
NK1 radioligand binding assay. Compounds are dissolved in 100% DMSO at a concentration 100× the desired highest assay concentration, serially diluted 1:3 in 100% DMSO, and 0.6 ul/well of each solution is dispensed to a Nunc polypropylene, round bottom, 384 well plate. 100% inhibition is defined with 0.6 ul/well of 1 mM L-733,060 (Sigma L-137) dissolved in DMSO. 30 ul/well of a 2×U373 membrane preparation (267 ug/ml in 100 mM Tris-Cl, pH 7.5, 6 mM MgCl2, 0.2% (v/v) Sigma mammalian protease inhibitor cocktail (Sigma P-8340), and 4 ug/ml chymostatin, Sigma C-7268) and 30 ul/well of a 2×radioligand solution (400 pM [^125I]Substance P (Perkin Elmer NEX-190) in 1% (w/v) BSA (Sigma A-2153), 0.1 mg/ml bacitracin, Sigma B-0125) are added to the well and the reaction incubated for 1 hour at room temperature. The contents of the assay plate are then transferred to a Millipore MultiscreenHTS GF/B filter plate which has been pretreated with 0.5% PEI for at least one hour. The plate is vacuum filtered and washed with 7 washes of 100 ul/well of 20 mM Tris-Cl, pH 7.5, 0.5% (w/v) BSA chilled to 4° C. The filtration and washing is completed in less than 90 s. The plates are air-dried overnight, 12 ul/well of MicroScint scintillation fluid added, and the plates counted in a Trilux.
as §2

T1 sequence (P31645 whole entry): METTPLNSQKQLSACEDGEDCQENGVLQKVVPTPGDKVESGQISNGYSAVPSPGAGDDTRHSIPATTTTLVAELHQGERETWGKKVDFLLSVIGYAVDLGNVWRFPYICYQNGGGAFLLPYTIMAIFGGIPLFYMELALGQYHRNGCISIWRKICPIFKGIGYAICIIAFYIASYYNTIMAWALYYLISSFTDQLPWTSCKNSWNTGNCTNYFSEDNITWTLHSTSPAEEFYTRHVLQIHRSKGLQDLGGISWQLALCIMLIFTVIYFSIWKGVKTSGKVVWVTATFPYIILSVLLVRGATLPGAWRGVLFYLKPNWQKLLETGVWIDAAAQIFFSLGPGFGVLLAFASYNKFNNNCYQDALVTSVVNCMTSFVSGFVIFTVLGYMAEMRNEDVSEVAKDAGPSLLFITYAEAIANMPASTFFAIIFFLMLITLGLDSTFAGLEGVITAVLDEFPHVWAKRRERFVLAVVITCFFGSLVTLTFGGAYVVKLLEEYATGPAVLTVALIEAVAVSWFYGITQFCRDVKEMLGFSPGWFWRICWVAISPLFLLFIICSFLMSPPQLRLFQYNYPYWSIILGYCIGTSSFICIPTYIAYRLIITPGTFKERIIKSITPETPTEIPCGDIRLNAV
T2 sequence (P25103 whole entry): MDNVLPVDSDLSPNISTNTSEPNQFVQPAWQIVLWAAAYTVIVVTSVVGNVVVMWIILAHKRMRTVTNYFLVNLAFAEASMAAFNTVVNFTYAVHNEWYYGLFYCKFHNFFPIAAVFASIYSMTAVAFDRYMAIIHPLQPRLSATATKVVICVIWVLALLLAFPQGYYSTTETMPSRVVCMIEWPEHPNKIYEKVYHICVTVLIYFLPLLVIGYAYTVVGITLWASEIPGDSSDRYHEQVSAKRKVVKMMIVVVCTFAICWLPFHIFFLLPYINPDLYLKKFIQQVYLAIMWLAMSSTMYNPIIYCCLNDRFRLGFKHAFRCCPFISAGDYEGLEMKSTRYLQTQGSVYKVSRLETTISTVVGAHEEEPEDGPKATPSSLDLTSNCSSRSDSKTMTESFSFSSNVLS

SMILES | pIC50 (hSERT) | pIC50 (NK-1)
CC(OCC1(CCN)OCc2ccccc21)c1cc(Br)cc(C(F)(F)F)c1 (stereo not drawn) [Example 28] | < 6.52 | 7.00 to 11.00
N#Cc1ccc(-c2cc(COCC3(CCN)OCc4ccccc43)cc(C(F)(F)F)c2)cc1 (stereo not drawn) [Example 2, 3′-(((1-(2-aminoethyl)-1,3-dihydroisobenzofuran-1-yl)methoxy)methyl)-5′-(trifluoromethyl)biphenyl-4-carbonitrile] | 6.52 to 7.00 | 7.00 to 11.00
N#Cc1ccc2c(c1)COC2(CCN)COCc1cc(C(F)(F)F)cc(C(F)(F)F)c1 (stereo not drawn) [Example 23] | 6.52 to 7.00 | 7.00 to 11.00

— patent publication US7632861B2, “Substituted heterocyclic ethers and their use in CNS disorders” (Bristol-Myers Squibb Company, priority 2007, dated 2009)
